Data on 89 compounds can be found in a melting point compilation (Tetko et al.; mined from patent text by program, amines drawn as free bases though some values may be those of a salt).

The structures appear in SMILES notation.

Turning to `CCOC(=O)C1=C(C)NC(O)(C(Cl)(Cl)Cl)C(C(=O)OCC)C1c1cccc([N+](=O)[O-])c1` (centres undefined), the melting point (in general, the temperature, or range, at which the solid turns liquid) lay in the range of 125 to 126 °C.

The compound `[N-]=[N+]=NC(C(=O)O)C1c2ccccc2C=Cc2ccccc21` (centres undefined) returned a melting point of 119 to 120 °C.

In turn, `CN(C(=O)C(F)(F)F)C1Cc2ccc(C(=O)CCl)cc2C1` (centres undefined) showed a melting point of 130 to 131 °C.

In turn, `CCCCCN(CCC12CC3CC(CC(C3)C1)C2)C(=O)NCCCc1ccnc2ccccc12` had a melting point of 80.2 to 102 °C.

`CCCn1nc2c(N)nc3cnccc3c2c1CCNC(=O)c1ccc(F)cc1` gave a melting point of 317 to 318 °C.

The compound `O=C1C(=Cc2ccccc2N2CCNCC2)SCCN1c1ccc(Cl)c(Cl)c1` yielded a melting point of 154 to 155 °C.

In turn, `O=[N+]([O-])C(CO)(CO)CCc1ccc(Sc2cccc(OCc3ccccc3)c2)cc1Cl` returned a melting point of 69 to 70 °C.

`COc1ccccc1-c1ccc(C#N)c(=O)[nH]1`: the melting point was in the range of 236 to 238 °C.

In turn, `Cc1cc(Cn2cc(C(F)(F)C(F)(F)F)c(C(F)(F)C(F)(F)F)n2)ccc1NC(=O)c1cccc(Br)c1C(=O)N[C@@H](C)CS(C)=O` (some centres undefined) showed a melting point of 127 to 129 °C.

Consider `CCOC(=O)c1cnc2sccc2c1Sc1nnc(C)s1`, for which the melting point lay in the range of 93 to 94 °C.

For the compound `CC1(C)Oc2ccc([N+](=O)[O-])cc2C(Br)C1Br` (centres undefined), the melting point was 130 to 134 °C.

Compound `Oc1ncnc2nc(CC3CCN(CC4COc5ccccc5O4)CC3)n(Cc3ccc(F)cc3)c12` (centres undefined) registered a melting point of 175 °C.

In turn, `CS(=O)c1c(C#N)nn(-c2ccc(C(F)(F)F)cc2Cl)c1N` (centres undefined) registered a melting point of 146 to 147 °C.

For `Cc1ccc(-c2nnc(N3CCC(O)CC3)nc2-c2ccc(C)cc2)cc1`, the melting point is 167 to 168 °C.

The compound `CCCCCc1cc2c(nc(O)n2CC2CCN(C(C)=O)CC2)c(N)n1` gave a melting point of 228 to 231 °C.

As to `CCOC(=O)C(c1c(Cl)ccc(Cl)c1Cl)N(C(=O)CCl)c1ccc(Br)cc1` (centres undefined), the melting point is 141 °C.

Consider `CC(=C(Br)Br)c1cn(-c2c(Cl)cc(C(F)(F)F)cc2Cl)nc1C#N`, for which the melting point lay within 119 to 122 °C.

For `Nc1nc(NC2CCCCC2)nc2c1ncn2C1C=CCCC1` (centres undefined), the melting point was in the range of 108 to 111 °C.

As to `CCC(C#Cc1cccc(Oc2ccccn2)c1)N(O)C(N)=O` (centres undefined), the melting point lay within 96 to 98 °C.

The compound `Cc1cc(Br)ccc1C(=O)NCC(F)(F)F` returned a melting point of 124 to 126 °C.

Compound `CS(=O)(=O)c1ccc(C(=O)c2ccc(Cl)cc2)cc1` registered a melting point of 176 °C.

For `CS(=O)(=O)[C@H]1CN(Cc2ccccc2)C[C@@H]1S(C)(=O)=O`, the melting point worked out at 56.5 °C.

The compound `O=C(O)C1=Cc2cc(CO)ccc2OC1CC(F)(F)F` (centres undefined) displayed a melting point of 178 to 181 °C.

The compound `CCOC(=O)c1sc(S(C)(=O)=O)c2c1CCc1c(Br)nn(C)c1-2` returned a melting point of 195 to 196 °C.

`COc1ccccc1C(=O)CN1C(=O)C(NC(=O)Nc2cccc(-c3nnn[nH]3)c2)N=C(c2ccccc2F)c2cccc(C)c21` (centres undefined) yielded a melting point of 194 to 195 °C.

`COc1cc2[nH]c(=O)c3c(c2cc1OC)CCN(CCN(C)C)C3` had a melting point of 160 to 164 °C.

Consider `N=C(N)NCCCOc1ccc2c(c1)CC(CCC(=O)O)C(=O)N2` (centres undefined), for which the melting point fell in the range of 168 to 172 °C.

Compound `CN(CCOc1ccc(CC2SC(=O)NC2=O)cc1)c1nccs1` (centres undefined) had a melting point of 186 °C.

On to `Cc1cc(-c2noc(C3CC3)n2)cc(C)c1OCCCc1cc(O)no1`, for which the melting point fell in the range of 155 to 156 °C.

`Nc1nc(Cl)c(Cl)nc1[N+](=O)[O-]` gave a melting point of 169 to 170 °C.

`O=C(NCC1CCCC1)NCC1CCCC1` returned a melting point of 162 to 164 °C.

`CCCC1(CCC)CCCc2c(Nc3ccc(Cl)cc3Cl)nc(C)nc21` showed a melting point of 238 to 244 °C.

In turn, `CCc1ccc(-c2ccc(Cl)cc2)cc1` yielded a melting point of 103 °C.

In the case of `CN(C/C=C/C#CC(C)(C)C)Cc1cccc(N(C)Cc2ccccc2)c1`, the melting point is 62 to 63 °C.

Compound `COc1ccccc1C(NCC(=O)Nc1c(C(C)C)cccc1C(C)C)c1ccccc1` (centres undefined) showed a melting point of 133 to 134 °C.

As to `N#CCC1(C#N)CCC2(CC1)OCCO2`, the melting point amounted to 137 °C.

In turn, `O=C(NCCCn1ccnc1)c1ccoc1` came in with a melting point of 127 to 129 °C.

The compound `CC(c1ccccc1)C(Oc1c(Br)cc(-c2c3ccccc3c(Br)c3sc4ccccc4c23)cc1Br)C(=O)O` (centres undefined) displayed a melting point of 115 to 120 °C.

The compound `CC(Oc1ccc(Oc2ccc(C(F)(F)F)cc2)cc1)C(=O)O` (centres undefined) came in with a melting point of 138 to 140 °C.

For `CCC1(CCCCCBr)C(=O)Nc2ccc(F)cc21` (centres undefined), the melting point was 82 to 83 °C.

`COc1ccc(CSCC(C(=O)O)C(F)(F)F)cc1` (centres undefined) displayed a melting point of 72 to 74 °C.

Consider `COc1ccc2c(c1)C(CCNC(=O)C(F)(F)F)=C(c1ccccc1)C2`, for which the melting point lay in the range of 138 to 139 °C.

In the case of `O=C(NCc1ncc[nH]1)c1[nH]c2ccc(Cl)cc2c1S(=O)(=O)c1ccccc1`, the melting point is 276 to 278 °C.

As to `CC(C)(C)C(=O)Nc1cc(Cl)c(Cl)cn1`, the melting point was in the range of 105 to 106 °C.

`O=C(NCCO)c1ccnc(-c2cccc3cc(Cc4cccc(C(F)(F)F)c4)sc23)c1` displayed a melting point of 168 to 169 °C.

For `CCOC(=O)C(C#N)C1(C#N)C(=O)N(Cc2ccc(C)cc2)c2c(C)cccc21` (centres undefined), the melting point is 128 to 130 °C.

The compound `O=C(c1ccccc1)c1ccc2cc[nH]c2n1` gave a melting point of 174 °C.

Turning to `COc1cc2c(c3c1OC(C)(C)C3)C(c1ccnc(Cl)c1)=NC(C)(C)C2`, the melting point was in the range of 139 to 140 °C.

Compound `CCOc1cc(N)c([N+](=O)[O-])cc1NCCO` showed a melting point of 157 to 158 °C.

As for `Oc1ccc(C(=C2SCCCS2)c2ccccc2)cc1`, the melting point lay within 135 to 137 °C.

For `CCC1C(=O)N(c2ccccc2)C(=S)N1c1ccc(Oc2ccccc2)cc1` (centres undefined), the melting point was in the range of 158 to 159 °C.

With `CCC(CC)c1ccc(Cl)c2nc3n(c12)CCCCN3c1ccc(SC)cc1C`, the melting point was in the range of 113 to 115 °C.

On to `O=C1C=C(OCc2ccccc2)CN1`, for which the melting point is 147 to 148 °C.

Compound `CNC(=O)C(C)Oc1ccc(O)cc1` (centres undefined) displayed a melting point of 112 °C.

The compound `Cc1c(F)c(F)c(F)c2c1c(=O)c(C(=O)O)cn2-c1ccc(F)cc1F` came in with a melting point of 221 to 222 °C.

As for `Cc1cc(-c2ccc(Cl)cc2)cnc1N=CN(C)C`, the melting point amounted to 99 °C.

For the compound `COc1ccccc1SCCCCCC(=O)O`, the melting point is 81 to 82 °C.

With `Cc1c(C(=O)Nc2ccc(N3CCC(N4CCOCC4)CC3)c([N+](=O)[O-])c2)cnn1-c1ccc(Cl)cc1`, the melting point lay within 195 to 200 °C.

Regarding `COc1cc(C(=O)CSC)ccc1OC(C)=O`, the melting point was found to be 70.4 °C.

For `CN(C)C(=O)COc1ccc(I)cc1`, the melting point fell in the range of 63 to 65 °C.

The compound `O=C(O)c1ccc(-c2nc(NCc3ccc4c(c3)OCO4)c3c4c(oc3n2)CCCC4)cc1` came in with a melting point of 205 °C.

Compound `COC(=O)c1ccc2cc(C(O)c3ccc4c(c3)C3(C)C5(C)CCC(C5)C3(C)O4)ccc2c1` (centres undefined) returned a melting point of 140 to 141 °C.

In turn, `CC(C)(Cc1ccccc1)OC(=O)Nc1ccc(-c2ncn(-c3ccc(OC(F)(F)F)cc3)n2)cc1` came in with a melting point of 153 to 155 °C.

With `COc1cc(C(=O)CC(c2ccncc2)C(C)(C)[N+](=O)[O-])cc(OC)c1OC` (centres undefined), the melting point was 214 to 216 °C.

`COc1ccc(C=CC(=O)O)cc1-c1cc2c(cc1OCCCCCCCO)C(C)(C)CCC2(C)C`: the melting point fell in the range of 105 to 107 °C.

`CCCCCCCCCCCCCCCCSCC(CN)n1nnc(C)n1` (centres undefined) yielded a melting point of 82 to 83 °C.

As to `O=C(C(=O)c1cccc(OCCCN2CCCC2)c1)c1cccc(OCCCN2CCCC2)c1`, the melting point lay within 136 to 139 °C.

In turn, `O=C(O)c1ccccc1-c1ccc(Cc2nc(-c3ccccc3)nc3ccccc23)cc1` registered a melting point of 210 °C.

`Clc1ccc(-c2coc3ccccc23)cc1`: the melting point lay within 56 to 57 °C.

As for `CC(=O)C=CS(=O)(=O)N1C=C(Cl)C=NC1`, the melting point was determined as 95 °C.

In turn, `O=C(O)CCCCCc1nn(-c2ccc([N+](=O)[O-])cc2)c2c1CCC2` showed a melting point of 131 to 132 °C.

As for `N#CC1=C(C2CCCCCC2)Nc2n[nH]cc2C1c1cccc(C#N)c1Br` (centres undefined), the melting point is 252 °C.

The compound `O=C(CCl)Nc1ccc2[nH]c(=O)oc2c1` showed a melting point of 228 to 231 °C.

Compound `CCN(CC)CC=CC(=O)Nc1cc2c(Nc3ccc(F)c(Cl)c3)ncnc2cc1OC1CCC1` registered a melting point of 111 °C.

`CC(=O)Oc1cccc2c1C(=O)c1c(OC(C)=O)cc(C(=O)NOCc3ccccc3)cc1C2=O` had a melting point of 192 to 194 °C.

`Cc1nc(-c2cccnc2)sc1-c1ccnc(Nc2ccc3c(c2)OCO3)n1` registered a melting point of 187 to 188 °C.

With `CCCC(=O)c1cc2c(=O)n(NS(C)(=O)=O)c(=O)[nH]c2cc1C(F)(F)F`, the melting point is 236 to 239 °C.

On to `COc1cc2cc(F)cnc2cc1F`, for which the melting point turned out to be 98 °C.

`O=C(Nc1ccc(CN2C(=O)C3CCCC3N(C(=O)CN3C(=O)c4ccccc4C3=O)c3ccccc32)cc1)Oc1ccccc1` (centres undefined) came in with a melting point of 185 to 187 °C.

For the compound `CN1CC(CCN2CC(=O)NC2=O)CC2c3cccc4[nH]cc(c34)CC21` (centres undefined), the melting point was 242 to 244 °C.

Regarding `c1cc(CSSc2nc3ccccc3s2)cc(CSSc2nc3ccccc3s2)c1`, the melting point fell in the range of 94 to 96 °C.

`Nc1cnc(Br)c(Cl)n1` returned a melting point of 120 to 122 °C.

Consider `O=P(O)(O)C(F)(F)c1ccc(CN(Cc2ccc(C(F)(F)P(=O)(O)O)cc2)S(=O)(=O)c2ccccc2Cl)cc1`, for which the melting point lay within 170 to 172 °C.

`O=[N+]([O-])c1cc(C(F)F)cc2nc(C(F)(F)F)[nH]c12` registered a melting point of 132 to 134 °C.

Take `CCc1cc(NC(=O)C(CS)Cc2ccccc2)cc(C(=O)O)c1` (centres undefined): the melting point was in the range of 159 to 160 °C.

`CCNS(=O)(=O)CC(=O)C=C(C)N` had a melting point of 112 to 114 °C.

On to `CCOC(=O)c1nc(-c2ccc(F)cc2)c(CCCl)s1`, for which the melting point was in the range of 81.5 to 82.5 °C.

With `OCCOCCn1ccc2ncnc(Nc3ccc(Oc4cccc(C(F)(F)F)c4)c(Cl)c3)c21`, the melting point lay in the range of 130 to 132 °C.

With `CSCc1cn(C)c2cc(Cl)ccc2c1=O`, the melting point is 163 to 164 °C.
